# Like-named read-outs stand apart in the source and are kept apart here.
# Columns and labels:
# Experiment in all cases: Antibacterial activity (MIC), standard method of Japan Society of Chemotherapy
# Assay type in all cases: cell-based
# Ps. aeruginosa, 32121 = settings: Pseudomonas aeruginosa, strain Ps. aeruginosa, read-out: minimum inhibitory concentration (MIC)
# Procedure: (§1) Examples of the present invention are given below by way of illustration and not by way of limitation. In this connection, antibacterial activity of each compound of interest was measured in accordance with the standard method designated by Japan Society of Chemotherapy. The results are shown in Tables 1 to 3 as minimum inhibitory concentration (MIC, µg/ml).
# Str. pyogenes, G-36 = settings: Streptococcus pyogenes
# Procedure: as §1
# Ser. marcescens, 10100 = settings: Serratia marcescens, strain Ser. marcescens, read-out: minimum inhibitory concentration (MIC)
# Procedure: as §1
# [1] = tested on: Str. faecalis, ATCC-19433; settings: Enterococcus faecalis, ATCC19433, strain Str. faecalis, read-out: minimum inhibitory concentration (MIC)
# Procedure: as §1
# S. flexneli, 2A 5503 = settings: strain S. flexneli, read-out: minimum inhibitory concentration (MIC)
# Procedure: as §1
# E. coli, NIHJ = settings: Escherichia coli, read-out: minimum inhibitory concentration (MIC)
# Procedure: as §1
# Ps. aeruginosa, 32104 = settings: Pseudomonas aeruginosa, strain Ps. aeruginosa, read-out: minimum inhibitory concentration (MIC)
# Procedure: as §1
# Pr. mirabilis, IFO-3849 = settings: Proteus mirabilis, IFO3849, strain Pr. mirabilis, read-out: minimum inhibitory concentration (MIC)
# Procedure: as §1
# S. aureus, 209P = settings: Staphylococcus aureus, strain S. aureus, read-out: minimum inhibitory concentration (MIC)
# Procedure: as §1
# Pr. vulgaris, 08601 = tested on: Pr. vulgaris, 08601
# Procedure: as §1
# S. aureus, 870307 = settings: Staphylococcus aureus, strain S. aureus, read-out: minimum inhibitory concentration (MIC)
# Procedure: as §1
# [2] = tested on: Ps. maltophilia, IID-1275; settings: Stenotrophomonas maltophilia, IID1275, strain Ps. maltophilia, read-out: minimum inhibitory concentration (MIC)
# Procedure: as §1
# S. epidermidis, 56500 = tested on: S. epidermidis, 56500
# Procedure: as §1
# [3] = G36, strain Str. pyogenes, G-36, read-out: minimum inhibitory concentration (MIC)
# [4] = Proteus vulgaris, strain Pr. vulgaris, 08601, read-out: minimum inhibitory concentration (MIC)
# [5] = Staphylococcus epidermidis, 56500, read-out: minimum inhibitory concentration (MIC)
# [6] = Staphylococcus epidermidis, strain S. epidermidis, 56500, read-out: minimum inhibitory concentration (MIC)
SMILES,"MIC (Ps. aeruginosa, 32121)","MIC (Str. pyogenes, G-36; [3])","MIC (Ser. marcescens, 10100)",MIC [1],"MIC (S. flexneli, 2A 5503)","MIC (E. coli, NIHJ; strain E. coli, NIHJ)","MIC (Ps. aeruginosa, 32104)","MIC (Pr. mirabilis, IFO-3849)","MIC (S. aureus, 209P)","MIC (Pr. vulgaris, 08601; [4])","MIC (S. aureus, 870307)",MIC [2],"MIC (Str. pyogenes, G-36; G36, read-out: minimum inhibitory concentration (MIC))","MIC (S. epidermidis, 56500; [5])","MIC (S. epidermidis, 56500; [6])","MIC (Pr. vulgaris, 08601; Proteus vulgaris, 08601, read-out: minimum inhibitory concentration (MIC))","MIC (E. coli, NIHJ)"
Cc1c(N2C[C@H](F)[C@@H](C3(N)CC3)C2)c(F)c(N)c2c(=O)c(C(=O)O)cn([C@@H]3C[C@@H]3F)c12 [compound 5],0.05 µg/mL,≤ 0.003 µg/mL,0.05 µg/mL,0.013 µg/mL,≤ 0.003 µg/mL,≤ 0.003 µg/mL,0.1 µg/mL,0.025 µg/mL,≤ 0.003 µg/mL,0.013 µg/mL,0.006 µg/mL,0.05 µg/mL,–,–,–,–,–
C[C@H]1COc2c(N3C[C@H](F)[C@@H](C4(N)CC4)C3)c(F)cc3c(=O)c(C(=O)O)cn1c23 [compound 6],0.2 µg/mL,–,0.1 µg/mL,0.1 µg/mL,0.025 µg/mL,0.013 µg/mL,0.78 µg/mL,0.2 µg/mL,0.006 µg/mL,0.05 µg/mL,0.39 µg/mL,0.39 µg/mL,0.025 µg/mL,0.025 µg/mL,–,–,–
Cc1c(N2C[C@H](C3(N)CC3)C(F)(F)C2)c(F)c(N)c2c(=O)c(C(=O)O)cn([C@@H]3C[C@@H]3F)c12 [compound 7],0.05 µg/mL,≤ 0.003 µg/mL,0.05 µg/mL,0.013 µg/mL,≤ 0.003 µg/mL,≤ 0.003 µg/mL,0.1 µg/mL,0.025 µg/mL,≤ 0.003 µg/mL,0.05 µg/mL,0.013 µg/mL,0.05 µg/mL,–,–,≤ 0.003 µg/mL,–,–
COc1c(N2C[C@@H](F)[C@@H](C3(N)CC3)C2)c(F)cc2c(=O)c(C(=O)O)cn([C@@H]3C[C@@H]3F)c12 [compound 12],0.1 µg/mL,0.006 µg/mL,0.1 µg/mL,0.025 µg/mL,0.013 µg/mL,≤ 0.003 µg/mL,0.39 µg/mL,0.05 µg/mL,≤ 0.003 µg/mL,–,0.025 µg/mL,0.2 µg/mL,–,0.013 µg/mL,–,0.013 µg/mL,–
CO[C@H]1CN(c2c(F)c(N)c3c(=O)c(C(=O)O)cn([C@@H]4C[C@@H]4F)c3c2C)C[C@@H]1C1(N)CC1 [compound 4],0.39 µg/mL,0.025 µg/mL,0.2 µg/mL,0.1 µg/mL,0.013 µg/mL,–,0.78 µg/mL,0.2 µg/mL,≤ 0.003 µg/mL,0.1 µg/mL,0.1 µg/mL,0.2 µg/mL,–,0.013 µg/mL,–,–,0.013 µg/mL
C[C@H]1COc2c(N3C[C@H](C4(N)CC4)C(F)(F)C3)c(F)cc3c(=O)c(C(=O)O)cn1c23 [compound 8],0.39 µg/mL,0.1 µg/mL,0.39 µg/mL,0.2 µg/mL,0.05 µg/mL,0.025 µg/mL,1.56 µg/mL,0.78 µg/mL,0.025 µg/mL,0.1 µg/mL,0.78 µg/mL,0.39 µg/mL,–,–,0.05 µg/mL,–,–
